One data set deals with T1, RAD54 (Homo sapiens, UniProt Q92698).
T1 construct: made in house
T1 sequence (Q92698 1-747): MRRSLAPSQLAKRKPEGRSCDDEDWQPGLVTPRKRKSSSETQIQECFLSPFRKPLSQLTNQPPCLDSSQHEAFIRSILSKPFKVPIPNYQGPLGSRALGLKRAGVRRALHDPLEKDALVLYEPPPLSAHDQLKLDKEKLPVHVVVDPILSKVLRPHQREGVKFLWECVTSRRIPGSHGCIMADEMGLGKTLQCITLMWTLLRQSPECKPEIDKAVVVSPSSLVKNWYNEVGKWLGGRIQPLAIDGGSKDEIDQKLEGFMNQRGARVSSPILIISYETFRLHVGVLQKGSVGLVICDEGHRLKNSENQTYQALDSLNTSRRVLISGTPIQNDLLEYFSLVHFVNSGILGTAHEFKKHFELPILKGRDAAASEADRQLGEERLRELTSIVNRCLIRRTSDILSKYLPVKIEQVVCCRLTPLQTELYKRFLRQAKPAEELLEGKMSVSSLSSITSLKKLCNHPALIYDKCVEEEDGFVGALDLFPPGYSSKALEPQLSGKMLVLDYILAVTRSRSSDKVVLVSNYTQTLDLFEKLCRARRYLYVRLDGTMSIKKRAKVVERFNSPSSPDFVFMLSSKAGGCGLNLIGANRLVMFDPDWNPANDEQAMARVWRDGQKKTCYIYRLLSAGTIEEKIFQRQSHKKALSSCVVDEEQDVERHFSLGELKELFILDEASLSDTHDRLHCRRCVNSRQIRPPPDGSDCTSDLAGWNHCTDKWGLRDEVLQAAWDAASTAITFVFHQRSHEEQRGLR
Description: DNA branch migration assay for RAD54. Format: biochemical. The following applies: 0 to 200 μM. As to the method: The partial Holliday junction (PX-junction), in which one of the four DNA arms is single-stranded (FIG. 6A), was used as a substrate for the 4-stranded branch migration promoted by RAD54 (Mazina et al., 2007, J. Biol. Chem. 282:21068-80). […] To produce PX-junctions, tailed DNA (Oligo 170, SEQ ID NO:9; Oligo 171, SEQ ID NO:10) (1.45 μM, molecules) was annealed with ^32P-labeled fork DNA (Oligo 71, SEQ ID NO:7; Oligo 169, SEQ ID NO:8) (1.33 μM, molecules) in branch migration buffer containing 25 mM Tris acetate, pH 7.5, 3 mM magnesium acetate, 2 mM ATP, 1 mM dithiothreitol, 100 μg ml^−1 bovine serum albumin, 10 U ml^−1 creatine phosphokinase, 15 mM creatine phosphate for 10 min at 37° C. and then for 10 min at 30° C. Then, branch migration was initiated immediately by addition of the RAD54 (100 nM) to PX-junctions (33 nM, molecules) in branch migration buffer and was carried out at 30° C. […] The DNA products were deproteinized by treatment with stop buffer (1.4% (w/v) SDS, 960 μg ml^−1 proteinase K, 7.5% (w/v) glycerol, 0.015% (w/v) bromphenol blue) for 5 min at 22° C. and analyzed by electrophoresis in 8% (w/v) polyacrylamide gels (29:1) in 1×TBE buffer (89 mM Tris borate, pH 8.3, and 1 mM EDTA) at 22° C. The gels were dried on DE81 chromatography paper (Whatman, Kent, UK) and quantified using a Storm 840 PhosphorImager (Molecular Dynamics, Piscataway, N.J.).

Data set [1] concerns the target T2, RAD51 (Homo sapiens, UniProt Q06609).
T2 construct: made in house
T2 sequence (Q06609 1-339): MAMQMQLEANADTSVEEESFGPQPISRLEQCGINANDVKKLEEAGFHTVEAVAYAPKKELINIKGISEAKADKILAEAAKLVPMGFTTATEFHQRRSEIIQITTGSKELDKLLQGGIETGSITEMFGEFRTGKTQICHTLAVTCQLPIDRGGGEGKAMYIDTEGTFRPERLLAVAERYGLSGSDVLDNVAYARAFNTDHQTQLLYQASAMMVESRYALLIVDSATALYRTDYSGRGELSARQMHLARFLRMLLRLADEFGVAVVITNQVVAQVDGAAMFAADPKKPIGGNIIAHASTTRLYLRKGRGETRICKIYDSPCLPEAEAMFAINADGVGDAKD
Nature of the data set: B02 binding to RAD51 by SPR. Particulars: absence of ATP. As to the method: Data were analyzed using the ProteOn Manager Software version 3.0 (Bio-Rad).

In data set [2] the target is T2, RAD51. Description: Effect on RAD51 oligomerization (gel filtration). The following applies: B02 200 μM, RAD51 13.5 μM. On the procedure:
The samples were then centrifuged for 15 min at 16,000×g, 4° C. Supernatants were loaded on a Superose 6 10/300 GL column (GE Healthcare) equilibrated with buffer E and eluted with a flow rate of 0.2 ml/min at 4° C. The gel filtration molecular weight marker kit (29-669 kDa, Sigma) was used for column calibration. The 0.3-ml fractions were collected and analyzed by electrophoresis in a 12% SDS-PAGE gel (100 V, 90 min).

For a further data set, the target named is T3, RecA (Escherichia coli, UniProt P0A7G6).
T3 construct: purchased USB Inc. (Cleveland, Ohio)
T3 sequence (P0A7G6 whole entry): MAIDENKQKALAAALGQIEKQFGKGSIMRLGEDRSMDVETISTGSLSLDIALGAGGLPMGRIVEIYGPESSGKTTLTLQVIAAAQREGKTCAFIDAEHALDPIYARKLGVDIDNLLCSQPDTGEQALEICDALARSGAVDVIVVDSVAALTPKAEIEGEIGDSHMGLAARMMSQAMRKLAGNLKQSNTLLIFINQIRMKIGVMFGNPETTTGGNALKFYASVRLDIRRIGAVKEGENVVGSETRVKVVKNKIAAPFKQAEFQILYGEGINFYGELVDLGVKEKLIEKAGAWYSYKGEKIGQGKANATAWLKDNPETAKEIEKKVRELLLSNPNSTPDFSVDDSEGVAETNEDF
Description: biochemical. Details: species or system E. coli. On the procedure: (Mazin et al., 2000, EMBO J. 19:1148-56). When indicated, chemical compounds in specified concentrations were added and incubation was continued for 30 min at 37° C. D-loop formation was initiated by addition of supercoiled pUC19 dsDNA (50 μM, nt) and carried out for 3 min at 37° C. The DNA products were deproteinized and analyzed as described above for the Rad51-promoted reaction.
IC50 values were calculated using GraphPad Prism V5.0 software and the sigmoidal dose-response function. The data were obtained from three independent repeats of experiments.

The test system of the next data set is Tp53−/− MEF cells. Nature of the data set: Clonogenic survival assay, Tp53−/− MEF. Format: cell-based, mouse. As to the method: Briefly, MEF cells were trypsinized and the appropriate number of cells was replated on 10 cm tissue culture dishes. […] Cells were fixed and stained using staining solution (0.05% crystal violet, 50% methanol in PBS); colonies were counted using an AlphaImager 3400 (Alpha Innotech Inc.). The percent of survival was determined as described (Hall & Giccia, 2005, “Radiobiology for the Radiologist”, 6th Ed., Philadelphia, Pa.: Lippincott Williams & Wilkins, pp. 30-45). The percent of survival obtained from untreated cells was normalized to 100% survival.

“Also recorded” adds a separate entry of the source. Bounds are passed on as bounds.

As for `O=c1c2ccccc2nc(/C=C/c2cccnc2)n1Cc1ccccc1` [Compound B02, (E)-3-benzyl-2-(2-(pyridin-3-yl)vinyl)quinazolin-4(3H)-one], the “inhibition of RAD54 branch migration, in words” value against RAD54 is on record as “not to significantly inhibit”. For the same compound, the kd at RAD51 [1] is reported as 2.5 (±0.3)×10^−2 s^−1. Moreover, the RAD51 oligomerization result at RAD51 [2] is on record as “does not affect RAD51 oligomerization”. The 50% inhibitory concentration (IC50) at RecA (IC50 (RecA), RecA 1 μM, ssDNA 3 μM, dsDNA 50 μM) is greater than 250 µM; at RecA (IC50 for RecA (D-loop), RecA 0.3 μM, ssDNA 0.9 μM, dsDNA 15 μM, B02 incubated with protein before ssDNA), greater than 100 µM. Further, the “inhibition of RecA DNA strand exchange, in words” value against RecA (up to 250 μM) is on record as “no significant inhibition”. In the data set on Tp53−/− MEF cells (B02 5 μM), the “sensitivity to cisDDP (cisplatin) and MMC” value is “more sensitive; also recorded: increased”. In addition, the “cellular viability, B02 alone” value in the data set on Tp53−/− MEF cells (up to 5 μM, Tp53−/− MEF) is reported as “No decrease of cellular viability; also recorded: did not have a substantial effect”.

The values above are taken from patent US9750742B2, “Small molecular inhibitors of RAD51 recombinase and methods thereof” (Drexel University, priority 2011, dated 2017).
